Assay results: article PMC6277767, “Broad and Region-Specific Impacts of the Synthetic Cannabinoid CP 55,940 in Adolescent and Adult Female Mouse Brains” (Frontiers in Molecular Neuroscience, 2018)

Test system: CD1 female mouse brain lipidome
Assay: Brain-region lipid levels (HPLC/MS/MS lipidomics) 2 h after single i.p. 3 mg/kg CP 55,940 vs vehicle
Format: in vivo
Set-up: N-arachidonoyl phenylalanine level, Mean / N-stearoyl tryptophan level, Mean / N-stearoyl proline level, Mean / N-stearoyl leucine level, Mean / N-stearoyl phenylalanine level, Mean / N-stearoyl serine level, Mean / N-stearoyl methionine level, Mean: unit: moles per gram
Settings: midbrain
Procedure: The Bloomington Institutional Animal Care and Use Committee of Indiana University reviewed and approved the animal procedures. Female mice from the CD1 strain were utilized to match our study examining THC’s effects on the brain lipidome ([Leishman et al., 2018]). Mice were given a single i.p. injection of either 3 mg/kg CP or 1:1:18 cremophor:ethanol:saline vehicle (please refer to the section “3 mg/kg CP Is Relevant for Synthetic Cannabinoid Abuse and Has Stronger Effects on the Female Mouse Brain Lipidome During Adolescence” for a justification of dose and use of female mice). Three different age groups were given injections: PND 35 and PND 50 adolescents, and adult mice (PND 113). At least eight mice in each age group received CP and at least eight received vehicle. Matching the THC study time course ([Leishman et al., 2018]), mice were sacrificed via rapid decapitation 2 h after injection. Brains were immediately removed and flash-frozen in liquid nitrogen, and then stored at -80°C until dissections were performed. Brains were dissected on an ice-cold dissection plate into the following regions: STR, HIPP, CER, THAL, CTX, HYP, MID, and STEM. These abbreviations for these brain areas will be used exclusively when discussing the results generated by these specific dissections. Each dissected area was immediately placed in liquid nitrogen and then stored at -80°C until used for lipid extraction.
Tissue extracts were performed as previously described ([Bradshaw et al., 2006]; [Stuart et al., 2013]; [Raboune et al., 2014]; [Leishman et al., 2016a],[b], [2017], [2018]). First, samples were shock frozen in liquid nitrogen, weighed, and transferred to a centrifuge tube. The mass of the largest sample was multiplied by 50 to determine how many milliliters of HPLC-grade methanol (Fisher, Fair Lawn, NJ, United States) to add. Then, samples were spiked with 500 pmol deuterium-labeled NAGly (d8NAGly; Cayman Chemical, Ann Arbor, MI, United States). Samples were placed on ice in darkness for 2 h then individually homogenized and centrifuged at 19,000 × g for 20 min at 20°C. Supernatants were diluted with HPLC water (purified in house) to make a solution of 75% water, 25% supernatant. Lipids were partially purified on C18 solid phase extraction columns (Agilent, Palo Alto, CA, United States). A series of four elutions with 1.5 mL of 60%, 75%, 85%, and 100% methanol were collected ([Stuart et al., 2013]; [Leishman et al., 2016a],[b], [2018]).
As previously described ([Bradshaw et al., 2006]; [Tan et al., 2006]; [Smoum et al., 2010]; [Stuart et al., 2013]; [Tortoriello et al., 2013]; [Raboune et al., 2014]; [Leishman et al., 2016a],[b], [2017], [2018]), samples were analyzed using an Applied Biosystems API 3000 triple quadrupole mass spectrometer with electrospray ionization (Foster City, CA, United States). Using an Agilent XDB-C18 reversed phase analytical column and optimized mobile phase gradients, 20 μL from each elution were chromatographed. Two Shimadzu 10ADvp pumps (Columbia, MD, United States) provided the pressure for gradient elution. Mobile phase A: 20% methanol, 80% water (v/v) and 1 mM ammonium acetate (Sigma, St. Louis, MO, United States). Mobile phase B: 100% methanol, 1 mM ammonium acetate. Every method run began with 0% mobile phase B, reached 100% mobile phase B flowing at 0.2 mL/min, and gradually returned to 0% mobile phase B.
This screening library will be referred to as the lipidome when discussing data from this study. HPLC/MS/MS data were analyzed using Analyst software (Applied Biosystems) ([Bradshaw et al., 2006]; [Tan et al., 2006]; [Stuart et al., 2013]; [Tortoriello et al., 2013]; [Raboune et al., 2014]; [Leishman et al., 2016a],[b], [2017], [2018]). Chromatograms (Supplementary Figure 3) were generated by determining the retention time of analytes from the analytical column with a [M-1] or [M+1] parent peak and a fragmentation peak corresponding to the programmed values. […]

[1] = PND 50 female mice, 3mg/kg CP 55,940
[2] = PND 35 WT adolescent female mice, 3 mg/kg

CCCCCCC(C)(C)c1ccc([C@@H]2C[C@H](O)CC[C@H]2CCCO)c(O)c1 [CP 55,940]
N-linoleoyl serine level, Mean [1]: 6.73E-11 | N-linoleoyl tryptophan level, Mean [1]: BDL | N-linoleoyl tyrosine level, Mean [1]: BDL | N-linoleoyl valine level, Mean [1]: BDL | N-nervonoyl valine level, Mean [1]: BDL | N-oleoyl GABA level, Mean [1]: 5.62E-12 | N-oleoyl alanine level, Mean [1]: 6.9E-13 | N-oleoyl dopamine level, Mean [1]: BDL | N-oleoyl ethanolamine level, Mean [1]: 1.01E-10 | N-oleoyl glycine level, Mean [1]: 3.06E-12 | N-oleoyl leucine level, Mean [1]: 5.64E-13 | N-oleoyl methionine level, Mean [1]: 3.18E-13 | N-oleoyl phenylalanine level, Mean [1]: 1.15E-12 | N-oleoyl proline level, Mean [1]: BDL | N-oleoyl serine level, Mean [1]: 1.24E-10 | N-oleoyl tryptophan level, Mean [1]: BDL | N-oleoyl tyrosine level, Mean [1]: 3.77E-13 | N-oleoyl valine level, Mean [1]: 6.01E-14 | N-palmitoyl GABA level, Mean [1]: 1.3E-11 | N-palmitoyl alanine level, Mean [1]: 1.18E-12 | N-palmitoyl ethanolamine level, Mean [1]: 7.69E-11 | N-palmitoyl glycine level, Mean [1]: 1.39E-11 | N-palmitoyl leucine level, Mean [1]: 1.38E-12 | N-palmitoyl methionine level, Mean [1]: 1.13E-12 | N-palmitoyl phenylalanine level, Mean [1]: 1.94E-12 | N-palmitoyl proline level, Mean [1]: BDL | N-palmitoyl serine level, Mean [1]: 1.74E-11 | N-palmitoyl tryptophan level, Mean [1]: BDL | N-palmitoyl tyrosine level, Mean [1]: 8.39E-13 | N-palmitoyl valine level, Mean [1]: 3.48E-13 | N-stearoyl GABA level, Mean [1]: 1.21E-11 | N-stearoyl alanine level, Mean [1]: 3.21E-13 | N-stearoyl ethanolamine level, Mean [1]: 3.26E-11 | N-stearoyl glycine level, Mean [1]: 1.13E-12 | N-stearoyl leucine level, Mean [1]: 7.66E-13 | N-stearoyl methionine level, Mean [1]: 1.11E-12 | N-stearoyl phenylalanine level, Mean [1]: 1.62E-12 | N-stearoyl proline level, Mean [1]: BDL | N-stearoyl serine level, Mean [1]: 3.85E-11 | N-stearoyl tryptophan level, Mean [1]: BDL | N-stearoyl tyrosine level, Mean [1]: 1.16E-13 | Oleic acid level, Mean [1]: 3.11E-10 | PGE2 level, Mean [1]: 1.09E-10 | PhosphoLEA level, Mean [1]: PISSR | THC level, Mean [1]: BDL | 2-arachidonoyl glycerol level, Mean [2]: 3.74E-10 | 2-linoleoyl glycerol level, Mean [2]: 1.59E-10 | 2-oleoyl glycerol level, Mean [2]: 1.88E-09 | 2-palmitoyl glycerol level, Mean [2]: 4.69E-10 | 6-ketoPGF1α level, Mean [2]: 2.09E-11 | Arachidonic acid level, Mean [2]: 1.63E-09 | Linoleic acid level, Mean [2]: 5.14E-10 | N- stearoyl valine level, Mean [2]: 1.32E-12 | N-arachidonoyl GABA level, Mean [2]: 1.53E-11 | N-arachidonoyl alanine level, Mean [2]: 8.2E-12 | N-arachidonoyl ethanolamine level, Mean [2]: 2.18E-11 | N-arachidonoyl glycine level, Mean [2]: 4.42E-11 | N-arachidonoyl methionine level, Mean [2]: 1.48E-12 | N-arachidonoyl phenylalanine level, Mean [2]: 1.53E-12 | N-arachidonoyl serine level, Mean [2]: 6.81E-12 | N-arachidonoyl taurine level, Mean [2]: 3.84E-11 | N-arachidonoyl tyrosine level, Mean [2]: 1.5E-12 | N-docosahexaenoyl GABA level, Mean [2]: 2.08E-12 | N-docosahexaenoyl alanine level, Mean [2]: 3.78E-12 | N-docosahexaenoyl ethanolamine level, Mean [2]: 3.99E-11 | N-docosahexaenoyl glycine level, Mean [2]: 1.87E-11 | N-docosahexaenoyl leucine level, Mean [2]: 7.41E-13 | N-docosahexaenoyl methionine level, Mean [2]: 4.7E-13 | N-docosahexaenoyl phenylalanine level, Mean [2]: 1.08E-12 | N-docosahexaenoyl serine level, Mean [2]: 2.39E-11 | N-docosahexaenoyl tyrosine level, Mean [2]: 1.6E-12 | N-docosahexaenoyl valine level, Mean [2]: 3.26E-13 | N-linoleoyl GABA level, Mean [2]: 7.43E-13 | N-linoleoyl alanine level, Mean [2]: 1.52E-12 | N-linoleoyl ethanolamine level, Mean [2]: 3.78E-11 | N-linoleoyl glycine level, Mean [2]: 4.58E-12 | N-linoleoyl leucine level, Mean [2]: 3.56E-13 | N-linoleoyl phenylalanine level, Mean [2]: 2.21E-13 | N-linoleoyl serine level, Mean [2]: 5.04E-11 | N-oleoyl GABA level, Mean [2]: 4E-12 | N-oleoyl alanine level, Mean [2]: 7.02E-12 | N-oleoyl ethanolamine level, Mean [2]: 1.94E-10 | N-oleoyl glycine level, Mean [2]: 2.31E-11 | N-oleoyl leucine level, Mean [2]: 1.53E-12 | N-oleoyl methionine level, Mean [2]: 1.46E-12 | N-oleoyl phenylalanine level, Mean [2]: 1.6E-12 | N-oleoyl serine level, Mean [2]: 2.91E-10 | N-oleoyl tryptophan level, Mean [2]: 1.39E-13 | N-oleoyl tyrosine level, Mean [2]: 1.05E-12 | N-oleoyl valine level, Mean [2]: 1.38E-12 | N-palmitoyl GABA level, Mean [2]: 1.05E-11 | N-palmitoyl alanine level, Mean [2]: 1.05E-11 | N-palmitoyl ethanolamine level, Mean [2]: 9.08E-11 | N-palmitoyl glycine level, Mean [2]: 4.59E-11 | N-palmitoyl leucine level, Mean [2]: 3.23E-12 | N-palmitoyl methionine level, Mean [2]: 2.56E-12 | N-palmitoyl phenylalanine level, Mean [2]: 3.04E-12 | N-palmitoyl proline level, Mean [2]: 9.03E-13 | N-palmitoyl serine level, Mean [2]: 9.45E-11 | N-palmitoyl tryptophan level, Mean [2]: 4.42E-13 | N-palmitoyl tyrosine level, Mean [2]: 2.19E-12 | N-palmitoyl valine level, Mean [2]: 2.86E-12
